Test [1] deals with activated clotting time (ACT). Kind of test: Porcine ischemia/reperfusion model: activated clotting time (ACT). The class given is in vivo, pig. Conditions: for ACT group difference versus control: 90 and 180 min after. The source says: Arterial access was achieved via bilateral femoral artery cut-downs for the insertion of 8F sheaths. Central venous and carotid access was achieved via a neck incision to expose the external jugular vein and common carotid artery. Animals were then anticoagulated with 50 U/kg of unfractionated heparin to maintain an activated clotting time (ACT) between 250-350 seconds, prior to ischemia. A 7-8 Fr pigtail catheter was placed in the left ventricular cavity to measure pressure and for injection of […] microspheres. Angiography was performed to define coronary anatomy and measure the diameter of the left anterior descending coronary artery (LAD) at the point of intended balloon occlusion. A coronary sinus catheter was placed via the external jugular vein under fluoroscopic guidance for coronary venous sampling. Baseline cardiodynamic and hemodynamic data were measured using a solid state transducer-tipped catheter in the left ventricle (Millar Instruments, Houston, Tex.) to measure left ventricular pressure, and a fluid-filled transducer connected to the side port of the femoral artery sheath to measure peripheral arterial pressure. Approximately 3-4 million neutron-activated microspheres (BioPhysics Assay Laboratory, Inc, Worcester, Ma) (15 μm) were delivered through a pig-tail catheter into the left ventricle over a 30 second period, to quantify regional myocardial blood flow (RMBF). Simultaneously with injection, a reference sample was withdrawn at a rate of 7 cc/min from the femoral artery sheath, for 90 seconds during and after injection of microspheres. A contrast ventriculogram (60° right anterior oblique) was obtained to assess global and regional myocardial function at baseline. […] Balloon occlusion time was 75 minutes with coronary occlusion confirmed by contrast angiography, ST segment changes on electrocardiography, and quantitatively confirmed by microspheres delivered at the end of ischemia, as described above. […] At the end of 180 minutes of reperfusion, animals were euthanized with an IV injection of pentobarbital sodium (100 mg/kg) and the heart was excised to quantify the area at risk, infarct size, regional myocardial blood flow, and myeloperoxidase activity. Hemodynamic data (left ventricular and arterial blood pressure) and derived variables were recorded continuously using 10× and Datanalyst software (EMKA Technologies, Falls Church, Va.).
Blood anticoagulation was measured by following the ACT, determined using the Hemochron whole blood coagulating system (Hemochron, Edison, N.J.) and measured 10 minutes after delivery of 50 U/kg of unfractionated heparin after the insertion of arterial sheaths. […]

The subject of test [2] is rabbit ventricular myocytes. Description: [Na^+]i in paced myocytes exposed to ATX, no metabolic inhibition. The class given is cell-based. The conditions noted are these: FIG. 9. Here is the method:
In these studies, intracellular calcium concentration [Ca^++]i was measured by flow cytometry. Measurement of isolated mouse and rabbit ventricular myocyte [Ca^2+]i and [Na^+]i by flow cytometry has been described (Zhang et al., J. Cardiovasc. Pharmacol. 51: 443-449 (2008); Li et al., J. Mol. Cell. Cardiol. 33: 2145-2155 (2001)). [Ca^++]i was measured with the Ca^++ sensitive fluorescent probe, Fluo 3-AM (Molecular Probes, Eugene, Oreg.), using a FACScan (Becton-Dickinson, MA). The cells were exposed to 4 μmol/L Fluo-3 AM for 30 min at 37° C. The cells were then separated into aliquots. […] Metabolic ischemia was accomplished by incubating cells in a glucose-free MKRBB solution (pH 7.40) containing 2 mmol/L sodium cyanide (NaCN) to impair mitochondrial and glycolytic generation of ATP. To reproduce the situation in the beating ischemic heart, during the period of metabolic ischemia, myocytes were placed in a 5-well chamber with equal volumes of myocyte suspensions from the same heart dissociation placed in each well. The chamber was water bathed to maintain temperature at 37° C. and bubbled with 5% CO2 in air to keep myocytes in suspension. Each well was fitted with platinum sheet electrodes on both sides for field stimulation. One chamber was constructed with a glass coverslip bottom so that myocytes can be observed microscopically to assess capture threshold. Placing electrodes were connected in series to a constant current pulse generator that delivers a 0.2 ampere pulse at 0.5 Hz. […] Approximately 2×10^3 myocytes were analyzed to calculate average emission fluorescence intensity in each sample. […] Only those cells with low fluorescence intensity at 670 nm (PI-negative cells or viable cells) were included in the comparative analysis of [Ca^++]i. The sample [Ca^2+]i values were calculated by Mn^2+ quenching (Sugishita et al, 2001) and [Na^+]i values by comparison with a standard curve of varied [Na^+]i versus Na Green fluorescence. […] Results were expressed as means±SEM. […]

For the substance 2-O, 3-O desulfated heparin [ODSH], the “elevation above control in ACT” value in test [1] (15 mg/kg dose group) is on record as “approximately 200 seconds”. Further, the “ACT group difference versus control” value is on record as “no significant differences in ACT” in test [1] (ODS 5 mg/kg, end ischemia) and “no significant differences in ACT” in test [1] (ODS 15 mg/kg, end ischemia). Besides, the “ACT compared to the other groups” value in test [1] (ODS 45 mg/kg, end ischemia, 90 and 180 min after end of ischemia, on 50 U/kg UFH background) is on record as “significantly higher”. For the same substance, in test [2] (ODSH 100 ug/ml with ATX 10 nM), the “effect on ATX-induced increase in [Na^+]i” value is “almost completely inhibited”. Further, in test [2] (ODSH 100 ug/ml, HEPES + pacing alone), the “effect on [Na^+]i in the absence of ATX” value is “reduced [Na^+]i in myocytes in the absence of ATX but to a much smaller extent”.

Values taken from patent US20090238852A1, “METHODS FOR CONTROLLING INTRACELLULAR CALCIUM LEVELS ASSOCIATED WITH AN ISCHEMIC EVENT” (University of Utah Research Foundation, priority 2008, published 2009).
